Reference: patent US9133167B2, “Antibacterial quinoline derivatives” (JANSSEN PHARMACEUTICA NV, priority 2012, dated 2015)
Converted amounts (≈) assume the structure as drawn. Counter-ions that a name gives are not always drawn.

Assays:
[1] = system: Staphylococcus aureus (ATCC29213); experiment: Microtitre plate assay, IC90 for bacterial growth, Staphylococcus aureus strain; format: cell-based; details: 90% inhibitory concentration for bacterial growth, 24 hours at 37° C.; for IC90: read-out: IC90 (μg/ml) STA B29213
Description: D.2. In-Vitro Method for Testing Compounds for Anti-Bacterial Activity Against a Non-Mycobacterial Strain
Preparation of Bacterial Suspensions for Susceptibility Testing:
The bacteria used in this study were grown overnight in flasks containing 100 ml Mueller-Hinton Broth (Becton Dickinson—cat. no. 275730) in sterile de-ionized water, with shaking, at 37° C. Stocks (0.5 ml/tube) were stored at −70° C. until use. Bacteria titrations were performed in microtiter plates to detect the TCID50, in which TCID50 represents the dilution that gives rise to bacterial growth in 50% of inoculated cultures. In general, an inoculum level of approximately 100 TCID50 was used for susceptibility testing.
Anti Bacterial Susceptibility Testing: IC90 Determination
Flat-bottom, sterile 96-well plastic microtiter plates were filled with 180 μl of sterile deionized water, supplemented with 0.25% BSA. Subsequently, stock solutions (7.8× final test concentration) of compounds were added in 45 μl volumes in column 2 Serial five-fold dilutions (45 μl in 180 μl) were made directly in the microtiter plates from column 2 to reach column 11. Untreated control samples with (column 1) and without (column 12) inoculum were included in each microtiter plate. Depending on the bacteria type, approximately 10 to 60 CFU per well of bacteria inoculum (100 TCID50), in a volume of 100 μl in 2.8× Mueller-Hinton broth medium, was added to the rows A to H, except column 12. The same volume of broth medium without inoculum was added to column 12 in row A to H. The cultures were incubated at 37° C. for 24 hours under a normal atmosphere (incubator with open air valve and continuous ventilation). At the end of incubation, one day after inoculation, the bacterial growth was quantitated fluorometrically. Therefore resazurin (0.6 mg/ml) was added in a volume of 20 μl to all wells 3 hours after inoculation, and the plates were re-incubated overnight. A change in colour from blue to pink indicated the growth of bacteria. The fluorescence was read in a computer-controlled fluorometer (Cytofluor Biosearch) at an excitation wavelength of 530 nm and an emission wavelength of 590 nm. The % growth inhibition achieved by the compounds was calculated according to standard methods. The IC90 (expressed in μg/ml) was defined as the 90% inhibitory concentration for bacterial growth. The results are shown in Table 7 for an assay using a Staphylococcus aureus strain.

[2] = system: Mycobacterium smegmatis (ATCC607); experiment: In-vitro anti-bacterial activity against strain M. smegmatis ATCC607 (Alamar Blue growth inhibition); format: cell-based; details: 90% inhibitory concentration for bacterial growth, 48 hours at 37° C.; for IC90: Mycolicibacterium smegmatis, read-out: IC90 (μg/ml) MSM 607
Description: D.1. In-Vitro Method for Testing Compounds for Anti-Bacterial Activity Against Strain M. Smegmatis ATCC607.
Flat-bottom, sterile 96-well plastic microtiter plates were filled with 180 μl of sterile deionized water, supplemented with 0.25% BSA. Subsequently, stock solutions (7.8× final test concentration) of compounds were added in 45 μl volumes to a series of duplicate wells in column 2 so as to allow evaluation of their effects on bacterial growth. Serial five-fold dilutions (45 μl in 180 μl) were made directly in the microtiter plates from column 2 to 11 using a customised robot system (Zymark Corp., Hopkinton, Mass.). Pipette tips were changed after every 3 dilutions to minimize pipetting errors with high hydrophobic compounds. Untreated control samples with (column 1) and without (column 12) inoculum were included in each microtiter plate. Approximately 250 CFU per well of bacteria inoculum, in a volume of 100 in 2.8× Mueller-Hinton broth medium, was added to the rows A to H, except column 12. The same volume of broth medium without inoculum was added to column 12 in row A to H. The cultures were incubated at 37° C. for 48 hours in a humidified 5% CO2 atmosphere (incubator with open air valve and continuous ventilation). At the end of incubation, two days after inoculation, the bacterial growth was quantitated fluorometrically. Therefore Alamar Blue (10×) was added to all wells in a volume of 20 and plates were incubated for another 2 hours at […]
The fluorescence was read in a computer-controlled fluorometer (Cytofluor, Biosearch) at an excitation wavelength of 530 nm and an emission wavelength of 590 nm (gain 30). The percentage growth inhibition achieved by the compounds was calculated according to standard methods and expressed as IC90 […] which defines the 90% inhibitory concentration for bacterial growth.

Compound	IC90 (μg/ml) STA B29213 [1] [µg/mL]	IC90 (μg/ml) MSM 607 [2] [µg/mL]	other results
CS(=O)(=O)c1ccc2[nH]c(=O)c(C(c3ccccc3)C3(O)CCNCC3)cc2c1 (centres unmarked) (as salt: HCl) [Compound 100]	–	–	melting point: > 260 °C
COc1nc2ccc(C(C)C)cc2cc1C(c1ccc(Cl)cc1)C1(O)CCN(CCc2ccccc2)CC1.O=C(O)/C=C/C(=O)O (racemic) [Compound 91]	3.16	0.63	–
COc1nc2ccc(-c3cccnc3)cc2cc1C(c1ccc(Cl)cc1)C1(O)CCNCC1.O=C(O)/C=C/C(=O)O (racemic) [Compound 93]	10.83	3.05	–
COc1nc2ccc(-c3cccnc3)cc2cc1C(c1ccc(Cl)cc1)C1(O)CCN(C)CC1 (racemic) [Compound 94]	14.99 (≈ 31.6 µM)	6.70 (≈ 14.1 µM)	–
COc1nc2ccc(Br)cc2cc1C(c1ccccc1Cl)C1(O)CCNCC1.O=C(O)/C=C/C(=O)O (racemic) [Compound 95]	15.22	6.06	–
COc1nc2ccc(-c3cccnc3)cc2cc1C(c1ccccc1Cl)C1(O)CCNCC1.O=C(O)/C=C/C(=O)O (racemic) [Compound 97]	16.25	4.08	–
COc1nc2ccc(Br)cc2cc1C(c1cccc(Cl)c1)C1(O)CCNCC1.O=C(O)/C=C/C(=O)O (racemic) [Compound 98]	15.62	7.83	–
COc1nc2ccc(S(C)(=O)=O)cc2cc1C(c1ccccc1)C1(O)CCNCC1.O=C(O)/C=C/C(=O)O (racemic) [Compound 99]	>13.31	>13.31	–
COc1nc2ccc(Br)cc2cc1C(c1ccc(Cl)cc1)C1(O)CCN(Cc2cccc(C#N)c2)CC1.O=C(O)/C=C/C(=O)O (racemic) [Compound 105]	14.49	14.49	–
OC1(C(c2ccc(Cl)cc2)c2cc3cc(Br)ccc3nc2N2CCOCC2)CCN(CCc2ccccc2)CC1 (centres unmarked) [Compound 1]	–	–	IC90 [1]: 6.81 µg/mL (≈ 11 µM); melting point: 158 °C
COc1nc2ccc(Br)cc2cc1C(c1ccc(Cl)cc1)C1(O)CCN(Cc2ccccc2)CC1 (centres unmarked) [Compound 6]	–	–	IC90 [1]: > 13.9 µg/mL; IC90 [2]: > 13.9 µg/mL
O=c1[nH]c2ccc(Br)cc2cc1C(c1ccc(Cl)cc1)C1(O)CCN(Cc2ccccc2)CC1 (centres unmarked) [Compound 10]	–	–	IC90 [1]: 4.27 µg/mL (≈ 7.94 µM); melting point: 244 °C
C=Cc1ccc2nc(OC)c(C(c3ccc(Cl)cc3)C3(O)CCN(Cc4ccccc4)CC3)cc2c1 (centres unmarked) [Compound 11]	–	–	IC90 [1]: > 39.8 µg/mL; melting point: 195 °C
COc1nc2ccccc2cc1C(c1ccccc1)C1(O)CCNCC1 (centres unmarked) [Compound 12]	–	–	IC90 [1]: > 22 µg/mL; melting point: 119 °C
COc1nc2ccc(C#N)cc2cc1C(c1ccc(Cl)cc1)C1(O)CCN(Cc2ccccc2)CC1 (centres unmarked) [Compound 13]	–	–	IC90 [1]: 25.6 µg/mL (≈ 51.3 µM); melting point: 199 °C
COc1nc2ccc(Br)cc2cc1C(c1ccc(S(C)(=O)=O)cc1)C1(O)CCNCC1 (centres unmarked) [Compound 19]	–	–	IC90 [1]: > 16.1 µg/mL; IC90 [2]: > 16.1 µg/mL
COc1nc2ccc(Br)cc2cc1C(c1ccc(S(C)(=O)=O)cc1)C1(O)CCN(Cc2ccccc2)CC1 (centres unmarked) [Compound 20]	–	–	IC90 [1]: 7.5 µg/mL (≈ 12.6 µM); IC90 [2]: 3.76 µg/mL (≈ 6.31 µM)
COc1nc2ccc(Br)cc2cc1C(c1ccccc1)C1(O)CCN(C)CC1 (centres unmarked) [Compound 28]	>27.85	11.09 (≈ 25.1 µM)	–
COc1nc2ccc(Br)cc2cc1C(c1ccc(Cl)cc1)C1(O)CCN(CCc2ccccc2)CC1.O=C(O)/C=C/C(=O)O (centres unmarked) [Compound 47]	17.86	4.49	–
COc1nc2ccc(Br)cc2cc1C(c1ccc(C#N)cc1)C1(O)CCN(Cc2ccccc2)CC1 (centres unmarked) [Compound 58]	–	–	IC90 [1]: 8.47 µg/mL (≈ 15.6 µM); melting point: 220 °C

Compound	IC90 (μg/ml) STA B29213 [1] [µg/mL]	IC90 (μg/ml) MSM 607 [2] [µg/mL]	other results
COc1nc2ccc(Br)cc2cc1C(c1cccc(C)c1)C1(O)CCN(Cc2ccccc2)CC1 (centres unmarked) [Compound 61]	15.85 (≈ 29.8 µM)	3.16 (≈ 5.95 µM)	–
COc1nc2ccc(Br)cc2cc1C(c1ccc(Cl)cc1)C1(O)CCN(Cc2ccccc2C)CC1 (centres unmarked) [Compound 62]	15.85 (≈ 28 µM)	3.16 (≈ 5.58 µM)	–
COc1nc2ccc(C#N)cc2cc1C(c1ccc(Cl)cc1)C1(O)CCN(Cc2ccc(C)cc2)CC1 (centres unmarked) [Compound 76]	>21.99	–	–
O=C(O)/C=C/C(=O)O.OC1(C(c2ccc(Cl)cc2)c2cc3cc(Br)ccc3nc2N2CCOCC2)CCN(Cc2ccccc2)CC1 (centres unmarked) [Compound 77]	>47.23	–	–
O=c1[nH]c2ccc(-c3cccnc3)cc2cc1C(c1ccc(Cl)cc1)C1(O)CCN(Cc2ccccc2)CC1 (centres unmarked) [Compound 78]	13.47 (≈ 25.1 µM)	–	–
O=c1[nH]c2ccc(Br)cc2cc1C(c1ccc(Cl)cc1)C1(O)CCNCC1 (centres unmarked) [Compound 79]	28.25 (≈ 63.1 µM)	–	–
COc1ccc2nc(OC)c(C(c3ccc(Cl)cc3)C3(O)CCN(Cc4ccccc4)CC3)cc2c1.O=C(O)/C=C/C(=O)O (centres unmarked) [Compound 81]	10.05	–	–
COc1nc2ccc(Br)cc2cc1C(C1Oc2ccccc2O1)C1(O)CCN(Cc2ccccc2)CC1.O=C(O)/C=C/C(=O)O (centres unmarked) [Compound 85]	34.54	–	–
COc1nc2ccc(C(F)(F)F)cc2cc1C(c1ccc(Cl)cc1)C1(O)CCN(Cc2ccccc2)CC1.O=C(O)/C=C/C(=O)O (centres unmarked) [Compound 86]	>43.95	–	–
O=C(O)/C=C/C(=O)O.OC1(C(c2ccc(Cl)cc2)c2cc3cc(Br)ccc3nc2N2CCCCC2)CCN(Cc2ccccc2)CC1 (centres unmarked) [Compound 87]	>48.13	–	–
COc1nc2ccc(Cl)cc2cc1C(c1ccc(Br)cc1)C1(O)CCN(Cc2ccccc2)CC1 (centres unmarked) [Compound 88]	3.98 (≈ 7.21 µM)	3.16 (≈ 5.73 µM)	–
COc1nc2ccc(C(C)C)cc2cc1C(c1ccc(Cl)cc1)C1(O)CCN(Cc2ccccc2)CC1.O=C(O)/C=C/C(=O)O (centres unmarked) [Compound 90]	>41.36	–	–
Cn1c(=O)c(C(c2ccc(Cl)cc2)C2(O)CCN(Cc3ccccc3)CC2)cc2cc(Br)ccc21 (centres unmarked) [Compound 96]	13.86 (≈ 25.1 µM)	6.19 (≈ 11.2 µM)	–
CS(=O)(=O)c1ccc2[nH]c(=O)c(C(c3ccccc3)C3(O)CCNCC3)cc2c1 (centres unmarked) [Compound 100]	–	–	IC90 [1]: > 11.3 µg/mL; IC90 [2]: > 11.3 µg/mL
Cl.O=c1[nH]c2ccc(Br)cc2cc1C(c1cccc(Cl)c1)C1(O)CCNCC1 (centres unmarked) [Compound 101]	>12.04	12.04	–
CCn1c(=O)c(C(c2ccc(Cl)cc2)C2(O)CCNCC2)cc2cc(Br)ccc21.O=C(O)/C=C/C(=O)O (centres unmarked) [Compound 102]	14.58	11.58	–
Cl.N#Cc1ccc(C(c2cc3cc(Br)ccc3[nH]c2=O)C2(O)CCNCC2)cc1 (centres unmarked) [Compound 103]	>11.93	>11.93	–
COc1nc2ccc(C(N)=O)cc2cc1C(c1ccc(Cl)cc1)C1(O)CCN(Cc2ccccc2)CC1 (centres unmarked) [Compound 107]	>12.96	12.96 (≈ 25.1 µM)	–
COc1nc2ccc(C(=O)N(C)C)cc2cc1C(c1ccc(Cl)cc1)C1(O)CCN(Cc2ccccc2)CC1 (centres unmarked) [Compound 108]	>13.67	>13.67	–
